Each structure is given as a SMILES string.

The test concerns DOHH2 cells. Kind of test: Cell proliferation assay (MTS), DOHH2 cells, 120 h. Format: cell-based. The note with it: Homo sapiens, DOHH-2, 120 h. The text has this:
Cell Proliferation Assays
MTS testing kit was purchased from Promega. The RPMI-1640, Fetal bovine serum and Penicillin-Streptomycin were purchased from Gibco. Dimethyl sulfoxide (DMSO) was purchased from Sigma.
To investigate whether a compound is able to inhibit the activity of BCL-2 in cells, a mechanism-based assay using DOHH2 (DSMZ No.® ACC 47) and RS4;11 (ATCC® CRL-1873™) cell was developed. In this assay, inhibition of Bcl-2 was detected by the inhibition of DOHH2 cells proliferation. DOHH2 cells were cultured in culture flasks to 40-80% confluence in RPMI-1640 plus 10% fetal bovine serum. Cells were collected and plated onto 96-well plates at desired cell density (5000 cells/well). Plates were incubated overnight at 37° C., with 5% CO2 to adhere. Compounds were added to the plates, and the final compound concentrations were 10000, 3333, 1111, […], 124, 41, 14, 4.6 and 1.5 nM. Plates plated with DOHH2 or RS4;11 cells were placed at 37° C., with 5% CO2 for 120 h (DOHH2) or 72 h (RS4;11) respectively. 20 μl MTS/100 μl medium mixture solution were added to each well and incubate the plates for exactly 2 hours. The reaction was stopped by adding 25 μl 10% SDS per well. Measure absorbance at 490 nm and 650 nm (reference wavelength). IC50 was calculated using GraphPad Prism 5.0.
Select compounds prepared as described above were assayed according to the biological procedures described herein.
As for `C[C@@H]1COCCN1C[C@H]1COc2cc(S(=O)(=O)NC(=O)c3ccc(N4CCN(CC5=C(c6ccc(Cl)cc6)CC(C)(C)CC5)CC4)cc3Oc3cnc4[nH]ccc4c3)cc([N+](=O)[O-])c2N1` [Example 2-86, 2-((1H-pyrrolo[2,3-b]pyridin-5-yl)oxy)-4-(4-((4′-chloro-5,5-dimethyl-3,4,5,6-tetra-hydro-[1,1′-biphenyl]-2-yl)methyl)piperazin-1-yl)-N-(((S)-3-(((R)-3-methylmorpholino)meth-yl)-5-nitro-3,4-dihydro-2H-benzo[b][1,4]oxazin-7-yl)sulfonyl)benzamide], 648 nM corresponded to half-maximal inhibition (IC50). Under `CN=S1(=O)CCN(C[C@H]2COc3cc(S(=O)(=O)NC(=O)c4ccc(N5CCN(CC6=C(c7ccc(Cl)cc7)CC(C)(C)CC6)CC5)cc4Oc4cnc5[nH]ccc5c4)cc([N+](=O)[O-])c3N2)CC1` [Example 2-122, (S)-2-((1H-pyrrolo[2,3-b]pyridin-5-yl)oxy)-4-(4-((4′-chloro-5,5-dimethyl-3,4,5,6-tetra-hydro-[1,1′-biphenyl]-2-yl)methyl)piperazin-1-yl)-N-((3-((1-(methylimino)-1-oxido-1λ^6-thiomorpholino)methyl)-5-nitro-3,4-di-hydro-2H-benzo[b][1,4]oxazin-7-yl)sulfonyl)benzamide] stands 660 nM; under `CC1(C)CCC(CN2CCN(c3ccc(C(=O)NS(=O)(=O)c4cc5c(c([N+](=O)[O-])c4)N[C@@H](CN4CCS(=O)(=NC6CC6)CC4)CO5)c(Oc4cnc5[nH]ccc5c4)c3)CC2)=C(c2ccc(Cl)cc2)C1` [Example 2-124, (S)-2-((1H-pyrrolo[2,3-b]pyridin-5-yl)oxy)-4-(4-((4′-chloro-5,5-dimethyl-3,4,5,6-tetra-hydro-[1,1′-biphenyl]-2-yl)methyl)piperazin-1-yl)-N-((3-((1-(cyclopropylimino)-1-oxi-do-1λ^6-thiomorpholino)methyl)-5-nitro-3,4-dihydro-2H-benzo[b][1,4]oxazin-7-yl)sulfonyl)benzamide], 649 nM; under `CC1(C)CCC(CN2CCN(c3ccc(C(=O)NS(=O)(=O)c4cc5c(c([N+](=O)[O-])c4)N[C@@H](CCOC(=O)N4CCOCC4)CO5)c(Oc4cnc5[nH]ccc5c4)c3)CC2)=C(c2ccc(Cl)cc2)C1` [Example 2-135, (S)-2-(7-(N-(2-((1H-pyrrolo[2,3-b]pyridin-5-yl)oxy)-4-(4-((4′-chloro-5,5-dimethyl-3,4,5,6-tetrahydro-[1,1′-biphenyl]-2-yl)methyl)piperazin-1-yl)benzoyl)sulfamoyl)-5-nitro-3,4-dihydro-2H-benzo[b][1,4]oxazin-3-yl) ethyl morpholine-4-carboxylate], 186 nM. Under `CC1(C)CCC(CN2CCN(c3ccc(C(=O)NS(=O)(=O)c4cc5c(c([N+](=O)[O-])c4)N[C@H](CNS(C)(=O)=O)CO5)c(Oc4cnc5[nH]ccc5c4)c3)CC2)=C(c2ccc(Cl)cc2)C1` [Example 2-136, (R)-2-((1H-pyrrolo[2,3-b]pyridin-5-yl)oxy)-4-(4-((4′-chloro-5,5-dimethyl-3.4.5.6-tetra-hydro-[1,1′-biphenyl]-2-yl)methyl)piperazin-1-yl)-N-((3-(methylsulfonamidomethyl)-5-nitro-3,4-dihydro-2H-benzo[b][1,4]oxa-zin-7-yl)sulfonyl)benzamide] stands 378 nM; under `CCS(=O)(=O)NC[C@@H]1COc2cc(S(=O)(=O)NC(=O)c3ccc(N4CCN(CC5=C(c6ccc(Cl)cc6)CC(C)(C)CC5)CC4)cc3Oc3cnc4[nH]ccc4c3)cc([N+](=O)[O-])c2N1` [Example 2-137, (R)-2-((1H-pyrrolo[2,3-b]pyridin-5-yl)oxy)-4-(4-((4′-chloro-5,5-dimethyl-3,4,5,6-tetra-hydro-[1,1′-biphenyl]-2-yl)methyl)piperazin-1-yl)-N-((3-(ethylsulfonamidomethyl)-5-nitro-3,4-dihydro-2H-benzo[b][1,4]oxazin-7-yl)sulfonyl)benzamide], 139 nM. On to `CC1(C)CCC(CN2CCN(c3ccc(C(=O)NS(=O)(=O)c4cc5c(c([N+](=O)[O-])c4)N[C@H](CN4CCOC4=O)CO5)c(Oc4cnc5[nH]ccc5c4)c3)CC2)=C(c2ccc(Cl)cc2)C1` [Example 2-146, (R)-2-((1H-pyrrolo[2,3-b]pyridin-5-yl)oxy)-4-(4-((4′-chloro-5,5-dimethyl-3,4,5,6-tetra-hydro-[1,1′-biphenyl]-2-yl)methyl)piperazin-1-yl)-N-((5-nitro-3-((2-oxooxazolidin-3-yl)methyl)-3,4-dihydro-2H-benzo[b][1,4]oxazin-7-yl)sulfonyl)benzamide], for which the IC50 (in general, the midpoint of a concentration-inhibition curve) was 160 nM. `CC1(C)CCC(CN2CCN(c3ccc(C(=O)NS(=O)(=O)c4cc5c(c([N+](=O)[O-])c4)N[C@H](c4ccccc4)CO5)c(Oc4cnc5[nH]ccc5c4)c3)CC2)=C(c2ccc(Cl)cc2)C1` [Example 2-165, (R)-2-((1H-pyrrolo[2,3-b]pyridin-5-yl)oxy)-4-(4-((4′-chloro-5,5-dimethyl-3,4,5,6-tetra-hydro-[1,1′-biphenyl]-2-yl)methyl)piperazin-1-yl)-N-((5-nitro-3-phenyl-3,4-dihydro-2H-benzo[b][1,4]oxazin-7-yl)sulfonyl)benza-mide] yielded an IC50 of 77 nM. Against the preceding compound, the IC50 is about 2.1-fold lower. Consider `CC1(C)CCC(CN2CCN(c3ccc(C(=O)NS(=O)(=O)c4cc5c(c([N+](=O)[O-])c4)N[C@H](c4ccc(Cl)cc4)CO5)c(Oc4cnc5[nH]ccc5c4)c3)CC2)=C(c2ccc(Cl)cc2)C1` [Example 2-167, (R)-2-((1H-pyrrolo[2,3-b]pyridin-5-yl)oxy)-4-(4-((4′-chloro-5,5-dimethyl-3,4,5,6-tetra-hydro-[1,1′-biphenyl]-2-yl)methyl)piperazin-1-yl)-N-((3-(4-chlorophenyl)-5-nitro-3,4-dihydro-2H-benzo[b][1,4]oxazin-7-yl)sulfo-nyl)benzamide], for which it took 29 nM to reach half-maximal inhibition (IC50). As to `COc1ccc([C@@H]2COc3cc(S(=O)(=O)NC(=O)c4ccc(N5CCN(CC6=C(c7ccc(Cl)cc7)CC(C)(C)CC6)CC5)cc4Oc4cnc5[nH]ccc5c4)cc([N+](=O)[O-])c3N2)cc1` [Example 2-169, (R)-2-((1H-pyrrolo[2,3-b]pyridin-5-yl)oxy)-4-(4-((4′-chloro-5,5-dimethyl-3,4,5,6-tetra-hydro-[1,1′-biphenyl]-2-yl)methyl)piperazin-1-yl)-N-((3-(4-methoxyphenyl)-5-nitro-3,4-dihydro-2H-benzo[b][1,4]oxazin-7-yl)sulfonyl)benzamide], the IC50 is 39 nM.

In turn, `CC1(C)CCC(CN2CCN(c3ccc(C(=O)NS(=O)(=O)c4cc5c(c([N+](=O)[O-])c4)N[C@H](c4ccc(C#N)cc4)CO5)c(Oc4cnc5[nH]ccc5c4)c3)CC2)=C(c2ccc(Cl)cc2)C1` [Example 2-170, (R)-2-((1H-pyrrolo[2,3-b]pyridin-5-yl)oxy)-4-(4-((4′-chloro-5,5-dimethyl-3,4,5,6-tetra-hydro-[1,1′-biphenyl]-2-yl)methyl)piperazin-1-yl)-N-((3-(4-cyanophenyl)-5-nitro-3,4-dihydro-2H-benzo[b][1,4]oxazin-7-yl)sulfo-nyl)benzamide] had an IC50 of 464 nM. `CC1(C)CCC(CN2CCN(c3ccc(C(=O)NS(=O)(=O)c4cc5c(c([N+](=O)[O-])c4)N[C@@H](c4ccccn4)CO5)c(Oc4cnc5[nH]ccc5c4)c3)CC2)=C(c2ccc(Cl)cc2)C1` [Example 2-171, (S)-2-((1H-pyrrolo[2,3-b]pyridin-5-yl)oxy)-4-(4-((4′-chloro-5,5-dimethyl-3,4,5,6-tetra-hydro-[1,1′biphenyl]-2-yl)methyl)piperazin-1-yl)-N-((5-nitro-3-(pyridin-2-yl)-3,4-di-hydro-2H-benzo[b][1,4]oxazin-7-yl)sulfonyl) benzamide]: half-maximal inhibition (IC50) required 302 nM. Turning to `CC1(C)CCC(CN2CCN(c3ccc(C(=O)NS(=O)(=O)c4cc5c(c([N+](=O)[O-])c4)N[C@@H](c4ccccc4)CO5)c(Oc4cnc5[nH]ccc5c4)c3)CC2)=C(c2ccc(Cl)cc2)C1` [Example 2-172, (S)-2-((1H-pyrrolo[2,3-b]pyridin-5-yl)oxy)-4-(4-((4′-chloro-5,5-dimethyl-3,4,5,6-tetra-hydro[1,1′-biphenyl]-2-yl)methyl)piperazin-1-yl)-N-((5-nitro-3-phenyl-3,4-dihydro-2H-benzo[b][1,4]oxazin-7-yl)sulfonyl)benza-mide], the IC50 turned out to be 14 nM. The figure for `CC1(C)CCC(CN2CCN(c3ccc(C(=O)NS(=O)(=O)c4cc5c(c([N+](=O)[O-])c4)N[C@@H](c4ccc(F)cc4)CO5)c(Oc4cnc5[nH]ccc5c4)c3)CC2)=C(c2ccc(Cl)cc2)C1` [Example 2-173, (S)-2-((1H-pyrrolo[2,3-b]pyridin-5-yl)oxy)-4-(4-((4′-chloro-5,5-dimethyl-3,4,5,6-tetra-hydro-[1,1′-biphenyl]-2-yl)methyl)piperazin-1-yl)-N-((3-(4-fluorophenyl)-5-nitro-3,4-dihydro-2H-benzo[b][1,4]oxazin-7-yl)sulfo-nyl)benzamide] is 24 nM; for `CC1(C)CCC(CN2CCN(c3ccc(C(=O)NS(=O)(=O)c4cc5c(c([N+](=O)[O-])c4)N[C@@H](c4ccc(Cl)cc4)CO5)c(Oc4cnc5[nH]ccc5c4)c3)CC2)=C(c2ccc(Cl)cc2)C1` [Example 2-174, (S)-2-((1H-pyrrolo[2,3-b]pyridin-5-yl)oxy)-4-(4-((4′-chloro-5,5-dimethyl-3,4,5,6-tetra-hydro-[1,1′-biphenyl]-2-yl)methyl)piperazin-1-yl)-N-((3-(4-chlorophenyl)-5-nitro-3,4-dihydro-2H-benzo[b][1,4]oxazin-7-yl)sulfo-nyl)benzamide] it is 23 nM.

The values are drawn from US11091478B2 (Fochon Pharmaceuticals, Ltd., priority 2017, dated 2021).
